Active and inactive are the calls of the source. The calls are words filed in the database; no cut-off is given here.
Assays:
CDK2/Cyclin A2 = CDK2/Cyclin A2 (Homo sapiens, UniProt P24941)
CDK9/cyclin T1 = CDK9/cyclin T1 (Homo sapiens, UniProt P50750); experiment: biochemical
[1] = target: Cyclin-dependent kinase 5/CDK5 activator 1 (Homo sapiens, UniProt Q00535); experiment: biochemical
[2] = target: Cyclin-dependent kinase 1/cyclin B1 (Homo sapiens, UniProt P06493); experiment: biochemical
[3] = target: Cyclin-dependent kinase 4/cyclin D1 (Homo sapiens, UniProt P11802); experiment: biochemical
[4] = target: Cyclin-dependent kinase 2/cyclin E1 (Homo sapiens, UniProt P24941); experiment: biochemical
HCT-116 [5] = experiment: Induction of cell cycle arrest in human HCT116 cells assessed as accumulation at G2/M phase at 5.9 to […] after 24 hrs by propidium iodide-staining based flow cytometry; format: functional
CDK7/Cyclin H/MNAT1 = CDK7/Cyclin H/MNAT1 (Homo sapiens, UniProt P50613); experiment: biochemical
HCT-116 [6] = experiment: Induction of cell cycle arrest in human HCT116 cells assessed as accumulation at G2/M phase at 0.03 to 0.8 uM after 24 hrs by propidium iodide-staining based flow cytometry; format: functional
HCT-116 [7] = experiment: Induction of cell cycle arrest in human HCT116 cells assessed as accumulation at G1 phase at 0.03 to 0.8 uM after 24 hrs by propidium iodide-staining based flow cytometry; format: functional

Sequence of Cyclin-dependent kinase 1/cyclin B1 (P06493 whole entry): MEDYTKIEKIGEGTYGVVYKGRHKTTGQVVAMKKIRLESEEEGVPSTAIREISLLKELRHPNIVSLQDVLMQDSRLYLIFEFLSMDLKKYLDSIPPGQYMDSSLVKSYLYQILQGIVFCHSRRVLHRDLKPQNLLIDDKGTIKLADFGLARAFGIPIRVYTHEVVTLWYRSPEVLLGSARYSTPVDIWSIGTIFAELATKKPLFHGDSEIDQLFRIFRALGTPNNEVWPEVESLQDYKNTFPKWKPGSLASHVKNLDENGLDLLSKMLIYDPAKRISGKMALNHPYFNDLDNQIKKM
Sequence of Cyclin-dependent kinase 1/cyclin B1 (P14635 whole entry, further chain): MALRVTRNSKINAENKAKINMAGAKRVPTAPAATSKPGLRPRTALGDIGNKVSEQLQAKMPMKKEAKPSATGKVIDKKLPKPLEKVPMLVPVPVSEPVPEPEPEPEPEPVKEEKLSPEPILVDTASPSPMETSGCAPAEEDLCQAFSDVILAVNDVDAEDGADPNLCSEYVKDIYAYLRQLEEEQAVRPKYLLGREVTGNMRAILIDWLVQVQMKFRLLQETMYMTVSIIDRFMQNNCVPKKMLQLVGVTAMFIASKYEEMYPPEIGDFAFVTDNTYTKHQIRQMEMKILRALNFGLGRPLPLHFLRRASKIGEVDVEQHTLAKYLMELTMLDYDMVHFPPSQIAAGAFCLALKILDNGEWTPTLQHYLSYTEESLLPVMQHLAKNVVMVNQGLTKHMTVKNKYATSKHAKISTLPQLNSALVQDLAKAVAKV
Sequence of CDK9/cyclin T1 (O60563 whole entry): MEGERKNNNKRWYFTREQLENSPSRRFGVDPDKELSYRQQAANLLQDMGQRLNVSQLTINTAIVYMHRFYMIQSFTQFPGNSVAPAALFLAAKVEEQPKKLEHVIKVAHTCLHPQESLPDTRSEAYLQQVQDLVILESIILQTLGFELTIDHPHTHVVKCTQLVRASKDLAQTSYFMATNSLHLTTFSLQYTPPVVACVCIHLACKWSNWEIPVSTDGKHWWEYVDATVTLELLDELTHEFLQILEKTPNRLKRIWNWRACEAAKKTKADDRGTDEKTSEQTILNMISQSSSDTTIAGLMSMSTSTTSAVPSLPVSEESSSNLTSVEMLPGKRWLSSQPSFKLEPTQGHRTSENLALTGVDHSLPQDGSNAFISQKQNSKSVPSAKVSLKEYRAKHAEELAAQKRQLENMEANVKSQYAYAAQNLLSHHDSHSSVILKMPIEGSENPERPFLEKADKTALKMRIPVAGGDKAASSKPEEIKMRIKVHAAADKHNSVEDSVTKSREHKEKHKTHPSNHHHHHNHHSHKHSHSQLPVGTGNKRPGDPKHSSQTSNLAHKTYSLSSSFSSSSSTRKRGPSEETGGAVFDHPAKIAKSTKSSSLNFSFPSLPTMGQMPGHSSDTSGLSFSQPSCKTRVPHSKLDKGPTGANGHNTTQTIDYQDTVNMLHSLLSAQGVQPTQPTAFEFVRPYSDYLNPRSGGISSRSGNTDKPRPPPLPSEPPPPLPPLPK
Sequence of CDK9/cyclin T1 (P50750 whole entry): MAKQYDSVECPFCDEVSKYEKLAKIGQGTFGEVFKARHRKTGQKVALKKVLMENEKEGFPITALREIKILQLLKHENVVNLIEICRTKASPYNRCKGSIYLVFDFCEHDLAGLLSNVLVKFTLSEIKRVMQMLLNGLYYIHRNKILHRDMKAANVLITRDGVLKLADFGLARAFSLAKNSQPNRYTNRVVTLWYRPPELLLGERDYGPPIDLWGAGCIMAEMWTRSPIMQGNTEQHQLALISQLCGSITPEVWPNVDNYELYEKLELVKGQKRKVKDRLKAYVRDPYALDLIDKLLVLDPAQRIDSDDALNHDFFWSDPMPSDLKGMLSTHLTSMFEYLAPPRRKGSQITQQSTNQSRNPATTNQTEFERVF
Sequence of Cyclin-dependent kinase 5/CDK5 activator 1 (Q00535 whole entry): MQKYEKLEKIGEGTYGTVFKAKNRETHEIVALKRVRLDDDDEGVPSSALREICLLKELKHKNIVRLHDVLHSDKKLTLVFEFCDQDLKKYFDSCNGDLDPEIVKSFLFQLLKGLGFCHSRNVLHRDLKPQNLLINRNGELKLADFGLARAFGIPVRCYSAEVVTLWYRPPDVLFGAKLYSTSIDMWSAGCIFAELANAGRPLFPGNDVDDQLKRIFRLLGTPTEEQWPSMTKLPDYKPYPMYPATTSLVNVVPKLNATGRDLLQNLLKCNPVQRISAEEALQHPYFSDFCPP
Sequence of Cyclin-dependent kinase 5/CDK5 activator 1 (Q15078 whole entry, further chain): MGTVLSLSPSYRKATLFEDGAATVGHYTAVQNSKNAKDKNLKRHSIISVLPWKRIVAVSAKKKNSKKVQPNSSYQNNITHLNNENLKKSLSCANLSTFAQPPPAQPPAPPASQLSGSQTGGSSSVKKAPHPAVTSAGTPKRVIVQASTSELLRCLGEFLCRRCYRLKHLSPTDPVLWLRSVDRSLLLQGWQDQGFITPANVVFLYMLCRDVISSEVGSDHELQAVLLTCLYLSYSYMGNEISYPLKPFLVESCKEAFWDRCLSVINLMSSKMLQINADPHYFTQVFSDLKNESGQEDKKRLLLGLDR
Sequence of CDK7/Cyclin H/MNAT1 (P51946 whole entry): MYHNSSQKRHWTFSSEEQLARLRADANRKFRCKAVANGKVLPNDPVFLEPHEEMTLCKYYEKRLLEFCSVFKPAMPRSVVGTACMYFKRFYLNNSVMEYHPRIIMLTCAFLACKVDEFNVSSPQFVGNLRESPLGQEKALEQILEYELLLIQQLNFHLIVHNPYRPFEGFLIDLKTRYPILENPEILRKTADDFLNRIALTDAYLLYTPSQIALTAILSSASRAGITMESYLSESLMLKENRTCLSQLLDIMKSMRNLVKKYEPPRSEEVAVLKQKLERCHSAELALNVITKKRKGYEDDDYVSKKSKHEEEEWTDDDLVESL
Sequence of CDK7/Cyclin H/MNAT1 (P50613 whole entry): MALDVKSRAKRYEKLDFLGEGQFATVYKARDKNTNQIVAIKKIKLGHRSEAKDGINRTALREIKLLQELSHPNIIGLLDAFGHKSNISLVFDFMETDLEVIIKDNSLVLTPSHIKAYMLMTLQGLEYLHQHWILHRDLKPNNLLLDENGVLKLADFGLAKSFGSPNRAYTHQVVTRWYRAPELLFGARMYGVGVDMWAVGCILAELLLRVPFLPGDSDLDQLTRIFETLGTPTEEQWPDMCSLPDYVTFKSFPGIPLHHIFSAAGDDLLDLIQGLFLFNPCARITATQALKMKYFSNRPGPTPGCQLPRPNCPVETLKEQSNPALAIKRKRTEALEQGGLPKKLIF
Sequence of CDK7/Cyclin H/MNAT1 (P51948 whole entry, further chain): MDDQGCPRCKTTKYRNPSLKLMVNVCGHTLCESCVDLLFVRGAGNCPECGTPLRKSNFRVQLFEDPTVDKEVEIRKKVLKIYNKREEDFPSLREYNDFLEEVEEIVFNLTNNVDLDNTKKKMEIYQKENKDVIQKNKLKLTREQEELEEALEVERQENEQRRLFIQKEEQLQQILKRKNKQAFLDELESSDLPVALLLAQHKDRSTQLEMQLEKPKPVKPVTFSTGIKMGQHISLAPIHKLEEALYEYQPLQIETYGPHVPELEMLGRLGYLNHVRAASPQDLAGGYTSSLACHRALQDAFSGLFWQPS
Sequence of Cyclin-dependent kinase 4/cyclin D1 (P11802 whole entry): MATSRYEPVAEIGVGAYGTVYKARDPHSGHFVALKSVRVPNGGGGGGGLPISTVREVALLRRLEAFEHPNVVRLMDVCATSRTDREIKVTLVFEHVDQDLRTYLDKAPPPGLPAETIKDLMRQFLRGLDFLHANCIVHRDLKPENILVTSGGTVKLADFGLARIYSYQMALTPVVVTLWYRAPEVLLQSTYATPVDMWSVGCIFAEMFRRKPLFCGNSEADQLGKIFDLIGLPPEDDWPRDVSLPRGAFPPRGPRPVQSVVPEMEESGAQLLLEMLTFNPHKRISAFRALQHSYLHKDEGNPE
Sequence of Cyclin-dependent kinase 4/cyclin D1 (P24385 whole entry, further chain): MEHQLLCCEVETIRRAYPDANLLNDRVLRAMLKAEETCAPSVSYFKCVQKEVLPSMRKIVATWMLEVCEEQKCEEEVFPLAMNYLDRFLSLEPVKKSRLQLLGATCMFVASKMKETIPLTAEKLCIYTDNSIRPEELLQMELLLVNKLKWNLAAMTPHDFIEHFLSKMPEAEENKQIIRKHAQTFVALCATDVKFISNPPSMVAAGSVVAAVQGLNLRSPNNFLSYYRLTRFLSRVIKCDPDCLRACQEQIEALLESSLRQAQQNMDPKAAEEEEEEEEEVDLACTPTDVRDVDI

CC[C@H](CO)Nc1nc(Nc2cccc(-c3ccccn3)c2)c2ncn(C(C)C)c2n1
IC50 (CDK2/Cyclin A2): 290 nM
IC50 (CDK9/cyclin T1): 8000 nM
IC50 [1]: 215 nM
IC50 [2]: 3700 nM
IC50 [3]: > 20000 nM
IC50 [4]: 93 nM
Activity (HCT-116 [5]): <=30%
IC50 (CDK7/Cyclin H/MNAT1): 822 nM

CCN1CCN(Cc2ccc(Nc3ncc(F)c(-c4cc(F)c5nc(C)n(C(C)C)c5c4)n3)nc2)CC1 [ABEMACICLIB]
Activity (HCT-116 [6]): <=30%
Activity (HCT-116 [7]): Active

Reference: ChEMBL document CHEMBL4308846, “How Selective Are Pharmacological Inhibitors of Cell-Cycle-Regulating Cyclin-Dependent Kinases?” (J Med Chem, 2018)
